Converted amounts (≈) assume the structure as drawn.
What was measured:
Mammary tumor cell MCF-7 = assay: Antitumor effect in vitro, proliferation inhibition (methylene blue staining, absorption at 660 nm); type: cell-based; conditions: MCF-7, 2000 cells, incubated 3 days with compound; for IC50: Homo sapiens, MCF7, 72 h, read-out: IC50 (50% cell proliferation inhibitory concentration), MCF-7
Procedure: (§1) Antitumor Effect in vitro Using Mammary Tumor Cell MCF-7 and MDA-MB-453
(§2) Each MCF-7, 2000 cells, and MDA-MB-453, 4000 cells, was inoculated using 10% serum added RPMI 1640 medium (Asahi Technoclass Inc.) into a 96 well plate. After incubating these cells at 37° C., under atmosphere of 5% CO2/95% air for 24 hours, each of the compounds of Examples 1, 2, 6, 9-13, 20, 24, 26, 27, 65, 66, 70, 71, 72 and 73 was added and incubated for further 3 days. Cells were stained with a 0.05% methylene blue solution and measured using a microplate reader (Benchmark Plus, Bio-Rad Laboratories) by absorption at 660 nm. Proliferation inhibition rate was calculated by the following equation, and 50% cell proliferation inhibitory concentrations of the compounds of Examples 1, 2, 6, 9-13, 20, 24, 26, 27, 65, 66, 70, 71, 72 and 73 were shown in Table 2. Proliferation inhibition rate=(1−absorbance with drug addition÷absorbance in control)×100

[1] = system: Mammary tumor cell MDA-MB-453; assay: as above; type: cell-based; conditions: MDA-MB-453, 4000 cells, incubated 3 days with compound; for IC50: Homo sapiens, 72 h, read-out: IC50 (50% cell proliferation inhibitory concentration), MDA-MB-453
Procedure: as §1, §2

[2] = system: Mammary tumor cells ZR-75-1; assay: Antitumor effect in vivo, subcutaneous tumor in nude mice; conditions: day 15 after initiating administration; oral 500 mg/kg once a day for 14 days; ZR-75-1 in female nude mice
Procedure: Antitumor Effect in vivo Using Mammary Tumor Cell ZR-75-1
Mammary tumor cells ZR-75-1 were inoculated in dorsal subcutaneous region of female nude mice. The compound of example 66 and example 53 was administered orally at dose level of 500 mg/kg, once a day, for 14 days consecutively from the point of initiating logarithmic growth of tumor cells. Conjugate axis and transverse axis of tumor were measured in the time dependent manner, and tumor volume was calculated by the following equation. Relative tumor volume, wherein tumor volume at the time of initiating administration was set as 1, was calculated. Effectiveness was judged by value (T/C) wherein tumor volume in the treated group is divided by tumor volume in the control group. tumor volume=conjugate axis×conjugate axis×transverse axis/2

[3] = system: mammary tumor cells, T-47D; assay: Antitumor effect in vitro, proliferation inhibition, same condition as Test Example 1; type: cell-based; conditions: Homo sapiens, T47D, 4000 cells
Procedure: as §2
Further, a test was conducted by using 4000 mammary tumor cells, T-47D, by adding a compound of example 65 or 66 under the same condition hereinabove.

Compound | IC50 (Mammary tumor cell MCF-7) [µg/mL] | IC50 [1] [µg/mL] | also measured
CC(C)[C@H](N)C(=O)O[C@@H]1C[C@H](C)Cc2nnc(-c3cccc(C(F)(F)F)c3)cc21.Cl.Cl | – | – | melting point: 162 to 165 °C
CC(C)[C@H](N)C(=O)O[C@H]1C[C@H](C)Cc2nnc(-c3cccc(C(F)(F)F)c3)cc21.Cl.Cl | – | – | melting point: 186 to 189 °C
CC(C)[C@H](N)C(=O)O[C@@H]1C[C@@H](C)Cc2nnc(-c3cccc(C(F)(F)F)c3)cc21.Cl.Cl | – | – | melting point: 181 to 185 °C
7-benzyl-3-(3-trifluoromethylphenyl)-7,8-dihydro-6H-pyrido[3,4-c]-pyridazin-3-one [Example 26] | – | – | IC50 (50% cell proliferation inhibitory concentration), MCF-7 (Mammary tumor cell MCF-7): 0.3610 µg/mL; IC50 (50% cell proliferation inhibitory concentration), MDA-MB-453 [1]: 8.9300 µg/mL
CC1Cc2nnc(-c3cccc(C(F)(F)F)c3)cc2C(O)C1 (racemic) [Example 6, 7-methyl-3-(3-trifluoromethylphenyl)-5,6,7,8-tetrahydrocinnolin-5-ol] | 0.0499 (≈ 0.162 µM) | 1.47 (≈ 4.77 µM) | –
O=C1CC(c2ccccc2)Cc2nnc(-c3cccc(C(F)(F)F)c3)cc21 (stereo not drawn) [Example 1, 7-phenyl-3-(3-trifluoro-methylphenyl)-7,8-dihydro-6H-cinnolin-5-one] | – | – | IC50 (50% cell proliferation inhibitory concentration), MCF-7 (Mammary tumor cell MCF-7): 0.0388 µg/mL (≈ 0.105 µM); IC50 (50% cell proliferation inhibitory concentration), MDA-MB-453 [1]: 0.0395 µg/mL (≈ 0.107 µM)
CCOC(=O)C1CC(=O)c2cc(-c3cccc(C(F)(F)F)c3)nnc2C1 (stereo not drawn) [Example 2, ethyl 5-oxo-3-(3-trifluoro-methylphenyl)-7,8-dihydro-6H-cinnoline-7-carboxylate] | – | – | IC50 (50% cell proliferation inhibitory concentration), MCF-7 (Mammary tumor cell MCF-7): 1.9600 µg/mL (≈ 5.38 µM); IC50 (50% cell proliferation inhibitory concentration), MDA-MB-453 [1]: 1.5700 µg/mL (≈ 4.31 µM)
CC1Cc2nnc(-c3cccc(C(F)(F)F)c3)cc2C(O)C1 (stereo not drawn) [Example 9, syn-(−)-7-methyl-3-(3-trifluoromethylphenyl)-5,6,7,8-tetrahydrocinnolin-5-ol] | – | – | IC50 (50% cell proliferation inhibitory concentration), MCF-7 (Mammary tumor cell MCF-7): 0.0772 µg/mL (≈ 0.25 µM); IC50 (50% cell proliferation inhibitory concentration), MDA-MB-453 [1]: 0.3390 µg/mL (≈ 1.1 µM)
CC1Cc2nnc(-c3cccc(C(F)(F)F)c3)cc2C(O)C1 (stereo not drawn) [Example 10, syn-(+)-7-methyl-3-(3-trifluoromethylphenyl)-5,6,7,8-tetrahydrocinnolin-5-ol] | – | – | IC50 (50% cell proliferation inhibitory concentration), MCF-7 (Mammary tumor cell MCF-7): 0.0982 µg/mL (≈ 0.319 µM); IC50 (50% cell proliferation inhibitory concentration), MDA-MB-453 [1]: 1.5400 µg/mL (≈ 5 µM)
CC(=O)OC1CC(C)Cc2nnc(-c3cccc(C(F)(F)F)c3)cc21 (stereo not drawn) [Example 11, 5-acetyloxy-7-methyl-3-(3-trifluoromethylphenyl)-5,6,7,8-tetrahydrocinnoline] | 0.0455 (≈ 0.13 µM) | 0.848 (≈ 2.42 µM) | –
O=C1CCCc2c1cc(-c1cccc(C(F)(F)F)c1)n[n+]2[O-] [Example 13, 5-oxo-1-oxy-3-(3-trifluoromethylphenyl)-7,8-dihydro-6H-cinnoline] | – | – | IC50 (50% cell proliferation inhibitory concentration), MCF-7 (Mammary tumor cell MCF-7): 0.0671 µg/mL (≈ 0.218 µM); IC50 (50% cell proliferation inhibitory concentration), MDA-MB-453 [1]: 0.9510 µg/mL (≈ 3.09 µM)
CC1CC(=O)c2cc(-c3cccc([N+](=O)[O-])c3)nnc2C1 (stereo not drawn) [Example 20, 7-methyl-3-(3-nitrophenyl)-7,8-dihydro-6H-cinnolin-5-one] | 1.41 (≈ 4.96 µM) | 9.35 (≈ 33 µM) | –
CC1CC(=O)c2cc(-c3cccc(F)c3)nnc2C1 (stereo not drawn) [Example 24, 3-(3-fluorophenyl)-7-methyl-7,8-dihydro-6H-cinnolin-5-one] | 3.57 (≈ 13.9 µM) | 4.95 (≈ 19.3 µM) | –
CC(C)(O)C1Cc2nnc(-c3cccc(C(F)(F)F)c3)cc2C(O)C1 (stereo not drawn) [Example 27, 7-(2-hydroxy-2-propyl)-3-(3-trifluoromethylphenyl)-5,6,7,8-tetrahydrocinnolin-5-ol] | 0.271 (≈ 0.769 µM) | 4.72 (≈ 13.4 µM) | –
CC1Cc2nnc(-c3cccc(C(F)(F)F)c3)cc2C(OC(=O)[C@@H](N)C(C)C)C1.Cl.Cl (stereo partly drawn) [Example 53, 5-(L-valyloxy)-7-methyl-3-(3-trifluoromethylphenyl)-5,6,7,8-tetrahydrocinnoline dihydrochloride] | – | – | T/C value (tumor volume in treated group divided by control group) [2]: 34.0%; melting point: 201 to 203 °C
CC1CC(=O)C2=C(C1)NN=C(c1cccc(C(F)(F)F)c1)C2 (stereo not drawn) [Example 65, 7-methyl-3-(3-trifluoromethylphenyl)-4,6,7,8-tetrahydro-1H-cinnolin-5-one] | 0.1 (≈ 0.324 µM) | 1.64 (≈ 5.32 µM) | IC50 [3]: 0.67 µg/mL (≈ 2.17 µM)
CC1CC(=O)c2cc(-c3cccc(C(F)(F)F)c3)nnc2C1 (stereo not drawn) [Example 66, 7-methyl-3-(3-trifluoromethylphenyl)-7,8-dihydro-6H-cinnolin-5-one] | 0.05 (≈ 0.163 µM) | 1.26 (≈ 4.11 µM) | IC50 [3]: 0.28 µg/mL (≈ 0.914 µM); T/C value (tumor volume in treated group divided by control group) [2]: 30.3%
Cc1cc(O)c2cc(-c3cccc(C(F)(F)F)c3)nnc2c1 [Example 70, 7-methyl-3-(3-trifluoromethylphenyl)cinnolin-5-ol] | 0.181 (≈ 0.595 µM) | 0.551 (≈ 1.81 µM) | –
COc1cc(C)cc2nnc(-c3cccc(C(F)(F)F)c3)cc12 [Example 71, 5-methoxy-7-methyl-3-(3-trifluoromethylphenyl)cinnoline] | 0.158 (≈ 0.496 µM) | 3.36 (≈ 10.6 µM) | –
CC(=O)Oc1cc(C)cc2nnc(-c3cccc(C(F)(F)F)c3)cc12 [Example 72, 5-acetyloxy-7-methyl-3-(3-trifluoromethylphenyl)cinnoline] | 0.138 (≈ 0.398 µM) | 0.42 (≈ 1.21 µM) | –
Cc1cc(OCc2ccccc2)c2cc(-c3cccc(C(F)(F)F)c3)nnc2c1 [Example 73, 5-benzyloxy-7-methyl-3-(3-trifluoromethylphenyl)cinnoline] | 0.399 (≈ 1.01 µM) | 2.6 (≈ 6.59 µM) | –

Source: patent US7563893B2, “3-Phenyl-cinnoline analogue and antitumor agent using the same” (Nippon Kayaku Kabushiki Kaisha, priority 2002, dated 2009)
